This passage reports MIC results from ChEMBL document CHEMBL1255302, “Genetic structures at the origin of acquisition of the beta-lactamase bla KPC gene” (2008).

≈ marks a conversion by molar mass, not a printed value.

Holding throughout (assay type): functional
In experiment [1] the test system is Escherichia coli. Kind of experiment: Antibacterial activity against Escherichia coli harboring pNYC plasmid expressing blaKPC gene by Etest method.
Experiment [2] concerns Escherichia coli. Kind of experiment: Antibacterial activity against Escherichia coli harboring pRYC plasmid expressing blaKPC gene by Etest method.
The test system of experiment [3] is Klebsiella pneumoniae. Kind of experiment: Antibacterial activity against Klebsiella pneumoniae GR by Etest method.
The subject of experiment [4] is Escherichia coli. Kind of experiment: Antibacterial activity against Escherichia coli harboring pNGR plasmid expressing blaKPC gene by Etest method.
Experiment [5] deals with Klebsiella pneumoniae. Kind of experiment: Antibacterial activity against Klebsiella pneumoniae 633 by Etest method.
Experiment [6] deals with Escherichia coli. Kind of experiment: Antibacterial activity against Escherichia coli harboring pBC633 plasmid expressing blaKPC gene by Etest method.
For experiment [7], the system named is Klebsiella pneumoniae. Kind of experiment: Antibacterial activity against Klebsiella pneumoniae KN2303 by Etest method.
Experiment [8] has as its system Escherichia coli. Kind of experiment: Antibacterial activity against Escherichia coli harboring pBC2303 expressing blaKPC gene plasmid by Etest method.
Experiment [9] relates to Pseudomonas aeruginosa. Kind of experiment: Antibacterial activity against Pseudomonas aeruginosa 2404 plasmid by Etest method.
The test system of experiment [10] is Pseudomonas aeruginosa. Kind of experiment: Antibacterial activity against Pseudomonas aeruginosa KG2505 harboring pCOL plasmid by Etest method.
Experiment [11] relates to Escherichia coli. Kind of experiment: Antibacterial activity against Escherichia coli DH10B expressing blaKPC gene by Etest method.
Experiment [12] concerns Escherichia coli. Kind of experiment: Antibacterial activity against Escherichia coli harboring pCOL plasmid expressing blaKPC gene by Etest method.
The subject of experiment [13] is Pseudomonas aeruginosa. Kind of experiment: Antibacterial activity against Pseudomonas aeruginosa KG2505 by Etest method.
In experiment [14] the test system is Klebsiella pneumoniae. Kind of experiment: Antibacterial activity against Klebsiella pneumoniae YC by Etest method.

In general, MIC refers to the least concentration at which growth counts as inhibited. Read a low MIC as greater potency. Turning to `CO/N=C(\C(=O)N[C@@H]1C(=O)N2C(C(=O)[O-])=C(C[N+]3(C)CCCC3)CS[C@H]12)c1csc(N)n1`, the MIC in [1] was 1 µg/mL (≈ 2.08 µM); in experiment [2] it was above 32 µg/mL; in experiment [3] it was above 32 µg/mL; in [4], 1.5 µg/mL (≈ 3.12 µM); in experiment [5], above 32 µg/mL; in experiment [6], 4 µg/mL (≈ 8.32 µM). The MIC was above 32 µg/mL in experiment [7]; 3 µg/mL (≈ 6.24 µM) in experiment [8]; above 32 µg/mL in experiment [9]; above 32 µg/mL in experiment [10]; 1 µg/mL (≈ 2.08 µM) in experiment [11]; 0.02 µg/mL (≈ 0.0416 µM) in experiment [12]. This compound yielded an MIC in [13] of 0.5 µg/mL (≈ 1.04 µM).
Turning to `C[C@H]1[C@H](NC(=O)/C(=N\OC(C)(C)C(=O)O)c2csc(N)n2)C(=O)N1S(=O)(=O)O` [AZTREONAM], the MIC in experiment [1] is 16 µg/mL (≈ 36.7 µM); in [4], 16 µg/mL (≈ 36.7 µM); in experiment [8], 192 µg/mL (≈ 441 µM); in [11] it was 24 µg/mL (≈ 55.1 µM).
As for `CO[C@@]1(NC(=O)Cc2cccs2)C(=O)N2C(C(=O)O)=C(COC(N)=O)CS[C@@H]21` [CEFOXITIN], the MIC in experiment [14] was above 32 µg/mL; in [1], 2 µg/mL (≈ 4.68 µM); in experiment [2], above 32 µg/mL; in experiment [3], above 32 µg/mL; in experiment [4], 4 µg/mL (≈ 9.36 µM); in experiment [5] it was above 32 µg/mL. Besides, the MIC was above 32 µg/mL in experiment [6]; above 32 µg/mL in experiment [7]; 8 µg/mL (≈ 18.7 µM) in experiment [8]; above 64 µg/mL in experiment [9]; above 32 µg/mL in experiment [10]; 2 µg/mL (≈ 4.68 µM) in experiment [11]. Moreover, the figures for the MIC in [12] and in [13] were 2 µg/mL (≈ 4.68 µM) and 0.25 µg/mL (≈ 0.585 µM), respectively.
For `CC(C)(O/N=C(\C(=O)N[C@@H]1C(=O)N2C(C(=O)[O-])=C(C[n+]3ccccc3)CS[C@H]12)c1csc(N)n1)C(=O)O` [CEFTAZIDIME], the MIC in [14] was 64 µg/mL (≈ 117 µM); in experiment [1] it was 4 µg/mL (≈ 7.32 µM); in experiment [2] it was above 256 µg/mL; in experiment [3] it was above 256 µg/mL; in experiment [4] it was 4 µg/mL (≈ 7.32 µM); in experiment [5], above 256 µg/mL. In addition, the MIC was 32 µg/mL (≈ 58.5 µM) in experiment [6]; above 256 µg/mL in experiment [7]; 256 µg/mL (≈ 468 µM) in experiment [8]; above 256 µg/mL in experiment [9]; above 256 µg/mL in experiment [10]; 8 µg/mL (≈ 14.6 µM) in [11]. Also, the MIC came out at 0.19 µg/mL (≈ 0.348 µM) in experiment [12] and 1 µg/mL (≈ 1.83 µM) in experiment [13].
Consider `CC(=O)OCC1=C(C(=O)O)N2C(=O)[C@@H](NC(=O)Cc3cccs3)[C@H]2SC1` [CEPHALOTHIN], for which the MIC in [14], in experiment [1], in experiment [2], in experiment [3], in experiment [4] and in experiment [5] was above 256 µg/mL in each case. In addition, the MIC in experiment [6] was above 256 µg/mL; in [7] it was above 256 µg/mL; in [8], above 256 µg/mL; in experiment [9], above 256 µg/mL; in experiment [10] it was above 256 µg/mL; in experiment [11], 256 µg/mL (≈ 646 µM). Moreover, the MIC in experiment [12] and in experiment [13] was 2 µg/mL (≈ 5.04 µM) in each case.
Turning to `CCN1CCN(C(=O)N[C@@H](C(=O)N[C@@H]2C(=O)N3[C@@H]2SC(C)(C)[C@@H]3C(=O)O)c2ccccc2)C(=O)C1=O` [PIPERACILLIN], the MIC in [14] is above 256 µg/mL; in [1], above 256 µg/mL; in [2] it was above 256 µg/mL; in [3] it was above 256 µg/mL; in experiment [4], 128 µg/mL (≈ 247 µM); in experiment [5], above 256 µg/mL. Also, the MIC in experiment [6], in [7], in experiment [8], in experiment [9], in experiment [10] and in experiment [11] was above 256 µg/mL in each case. Also, the results for the MIC in [12] and in experiment [13] were 1.5 µg/mL (≈ 2.9 µM) and 0.38 µg/mL (≈ 0.734 µM), respectively.
